Results from patent publication US8119640B2, “Hedgehog pathway antagonists methods of use” (The Board of Trustees of the Leland Stanford Junior …, priority 2008, dated 2012).

Columns and labels:
FLAG-Gli1 = test: Analysis of Gli1 stability; assay type: cell-based, mouse; conditions: Shh-LIGHT2 FLAG-Gli1 cells, 24 h
Procedure: Analysis of Gli1 stability. […] The cells were maintained under these conditions for 24 h. The cells were subsequently solubilized in lysis buffer (100 μL/well; 50 mM Tris-HCl, pH 7.4, 1% Triton X-100, 250 mM NaCl, 2 mM EDTA, 20 mM NaF, 2 mM Na3VO4, 2 mM 2-mercaptoethanol, and EDTA-free protease inhibitor cocktail (Roche)). This suspension was transferred to a 1.5-mL centrifuge tube and incubated on ice for 30 min, with vortexing every 5 min. The cell lysates were then centrifuged at 20,000×g at 4° C. for 20 min. Supernatants were removed, and a BCA assay was performed to quantify protein levels. 15 μg […] of protein from each sample was solubilized in 1×SDS-PAGE sample buffer (50 mM Tris-HCl, pH 6.8 containing 10% glycerol, 2% SDS, 50 mM DTT, 200 mM 2-mercaptoethanol, and 0.001% bromophenol blue) and boiled for 5 min. The samples were then resolved on a 4-12% Bis-Tris Criterion XT gel and transferred to a PVDF membrane. The membrane was dehydrated with methanol, and then probed with mouse anti-FLAG M2 antibody (Sigma; 1:1,000 dilution in blocking buffer (PBS containing 3% non-fat dried milk and 0.01% Tween 20)) for 90 min. The blots were washed 4×5 min in PBS containing 0.01% Tween 20 and then probed with horseradish peroxidase-conjugated sheep anti-mouse IgG antibody (GE Healthcare; 1:10,000 dilution in blocking buffer) for 1 h. The membranes were washed again 4×3 min in PBS, and immunoreactive bands were detected with a SuperSignal West Dura kit and a ChemiDoc XRS system. To probe for loading controls, the blots were rinsed with PBS, incubated for 1 min in methanol, washed 3×5 min in PBS, and then re-blocked for 1 h in PBS containing 5% non-fat dried milk and 0.1% Tween 20. […] Protein bands were quantified using Quantity One software (Bio-Rad). FLAG-Gli1 and importin β1 bands were normalized to the average band intensities for each experiment. The ratio of these two values was then used to determine the relative amount of FLAG-Gli1 per condition. Results from three independent experiments were then averaged, and normalized to FLAG-Gli1 levels in DMSO-treated cells.

Smo = Smo (Mus musculus, UniProt P56726); test: FRET assay for Smo multimerization (Smo-CFP/Smo-YFP); assay type: cell-based, murine; design: expressed in transfected cells; host or cells: NIH-3T3; conditions: 10 μM HPIs; for Shh-induced fold change in Smo-CFP/Smo-YFP FRET: 10 μM cyclopamine, 500 nM SAG
Procedure: FRET assay for Smo multimerization. […] The cells were washed with PBS buffer, fixed with 4% paraformaldehyde for 20 min, and mounted on slides in 80% glycerol. Fluorescence signals were acquired with the 100× objective of a Zeiss LSM510 confocal microscope with the following conditions: CFP was excited by 458-nm light and the emission was collected through a BP 480-520-nm filter. YFP was excited by 514-nm light and the emission was collected through a BP 535-590-nm filter. The CFP signal was obtained before and after photobleaching YFP(CFPBP and CFPAP, respectively) using the full power of the 514-nm laser line for 1-2 min at the top half of each cell, leaving the bottom half unbleached as an internal control. The CFP fluorescence intensity was analyzed using Metamorph software (Universal Imaging Corp.), and the energy transfer efficiency was calculated using the formula: FRET %=((CFPAP−CFPBP)/CFPAP)×100. Photobleached areas in 11-19 cells were analyzed for each experimental condition.

FLAG-Gli2 = test: Analysis of Gli2 processing and Shh-dependent Gli2 stabilization; assay type: cell-based, mouse; conditions: Shh-EGFP FLAG-Gli2 cells, absence and presence of Shh, 24 h
Procedure: Analysis of Gli2 processing and Shh-dependent Gli2 stabilization. […] Each compound incubation was also done in the absence and presence of 5% Shh-N-conditioned medium, and the cells were maintained under these conditions for 24 h. The cells were subsequently solubilized in lysis buffer (100 μL/well; 50 mM Tris-HCl, pH 7.4, 1% Triton X-100, 250 mM NaCl, 2 mM EDTA, 20 mM NaF, 2 mM Na3VO4, 2 mM 2-mercaptoethanol, EDTA-free protease inhibitor cocktail (Roche)). This suspension was transferred to a 1.5-mL centrifuge tube and incubated on ice for 30 min, with vortexing every 5 min. The cell lysates were then centrifuged at 20,000×g at 4° C. for 20 min. Supernatants were removed, and a BCA protein assay was performed to quantify protein levels. Mouse anti-FLAG M2 agarose slurry (20 μL, Sigma) was pelleted by centrifugation and incubated with 800 ng of protein from each condition for 90 min at 4° C. and then washed three times with 1 mL of wash buffer (75 mM Tris-HCl buffer, pH 8.0 containing 225 mM NaCl, 0.5% Triton X-100) and centrifuged at 2,300×g at 4° C. The agarose beads were suspended in 30 μL of 1×SDS-PAGE sample buffer (50 mM Tris-HCl, pH 6.8 containing 10% glycerol, 2% SDS, 50 mM DTT, 200 mM 2-mercaptoethanol, and 0.001% bromophenol blue), and the mixture was boiled for 5 min. The samples were then resolved on a 4-12% Bis-Tris Criterion XT gel and transferred to a PVDF membrane. The membrane was dehydrated with methanol, and then probed with rabbit anti-FLAG antibody (Sigma; 1:1,000 dilution in blocking buffer (PBS 21 containing 3% non-fat dried milk and 0.01% Tween 20)) for 90 min. […] Blots were washed 4×3 min in PBS, and the immunoreactive bands were detected with a SuperSignal West Dura kit and a ChemiDoc XRS system. Protein bands were quantified using Quantity One software (Bio-Rad). For each experiment, boxes of equal size were drawn around the FLAG-Gli2 and FLAG-Gli2R bands. Band intensities were then normalized to the average intensity for all bands in a given experiment. The results from all experiments were averaged and normalized relative to the basal level of FLAG-Gli2 (DMSO treatment without Shh-N-conditioned medium).

Smo, sequence (P56726 33-793): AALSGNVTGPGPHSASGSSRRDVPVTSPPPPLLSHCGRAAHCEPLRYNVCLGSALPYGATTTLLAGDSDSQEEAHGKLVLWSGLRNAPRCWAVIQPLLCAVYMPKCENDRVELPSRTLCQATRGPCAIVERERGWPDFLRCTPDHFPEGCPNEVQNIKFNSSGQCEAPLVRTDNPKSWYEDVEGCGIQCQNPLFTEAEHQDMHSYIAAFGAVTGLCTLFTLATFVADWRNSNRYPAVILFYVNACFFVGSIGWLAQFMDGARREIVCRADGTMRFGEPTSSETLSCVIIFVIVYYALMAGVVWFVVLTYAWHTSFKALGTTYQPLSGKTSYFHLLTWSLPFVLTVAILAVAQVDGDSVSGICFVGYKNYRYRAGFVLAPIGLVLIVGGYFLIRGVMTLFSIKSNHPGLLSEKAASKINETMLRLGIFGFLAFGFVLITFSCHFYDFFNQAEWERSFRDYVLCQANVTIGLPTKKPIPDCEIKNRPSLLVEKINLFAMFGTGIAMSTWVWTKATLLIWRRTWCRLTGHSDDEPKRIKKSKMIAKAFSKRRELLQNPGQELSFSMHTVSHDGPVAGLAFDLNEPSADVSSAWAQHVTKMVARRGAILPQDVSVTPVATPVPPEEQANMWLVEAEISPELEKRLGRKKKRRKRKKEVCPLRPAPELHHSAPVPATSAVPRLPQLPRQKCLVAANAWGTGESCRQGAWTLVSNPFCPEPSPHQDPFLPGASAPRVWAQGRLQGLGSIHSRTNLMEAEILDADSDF
Smo, sequence (P56726 33-793): as above

SMILES | FLAG-Gli1 stability/levels (immunoblotting) (FLAG-Gli1) | Shh-induced fold change in Smo-CFP/Smo-YFP FRET (Smo) | FLAG-Gli2 levels and processing (immunoblotting) (FLAG-Gli2) | Basal Smo-CFP/Smo-YFP FRET levels (Smo)
COCCOC(=O)C1=C(C)NC2=C(C(=O)CC(c3ccccc3OC)C2)C1c1cccc(O)c1 (mixture of isomers) [Compound 8, 4-(3-Hydroxy-phenyl)-7-(2-methoxy-phenyl)-2-methyl-5-oxo-1,4,5,6,7,8-hexahydro-quinoline-3-carboxylic acid 2-methoxy-ethyl ester] | increased | attenuated the fold-change in Smo-CFP/Smo-YFP FRET upon Shh stimulation | slightly elevated levels of full-length and repressor forms of FLAG-Gli2 under basal conditions and greater FLAG-Gli2 processing upon Shh stimulation | –
OCCNc1nc(N2CCN(c3ccccc3)CC2)nc2ccccc12 [Compound 11] | neither HPI-2 or HPI-3 had any significant effect on FLAG-Gli1 levels | – | moderately increased total FLAG-Gli2 levels as well but did not alter proteolytic processing of the transcription factor | decreased basal FRET levels
COc1ccc(OC)c2c1cc1n2CC(C)(C(=O)NC2CCCCCCC2)N(CCN(C)C)C1=O (stereo not shown) [Compound 17] | neither HPI-2 or HPI-3 had any significant effect on FLAG-Gli1 levels | attenuated the fold-change in Smo-CFP/Smo-YFP FRET upon Shh stimulation | moderately increased total FLAG-Gli2 levels as well but did not alter proteolytic processing of the transcription factor | decreased basal FRET levels
N#CC(C(=O)c1ccc(Cl)cc1Cl)=C1NC(=O)c2ccccc2N1 [Compound 18] | decreased | – | both decreased total FLAG-Gli2 levels and prevented Shh dependent stabilization of full-length FLAG-Gli2 | decreased basal FRET levels
